Experimental data from patent US20130225430A1, “METHODS AND COMPOSITIONS FOR TREATMENT OF TOX-3 AND TFF-1 MEDIATED CANCER PATHOGENESIS” (CEDARS-SINAI MEDICAL CENTER, priority 2012, published 2013).

Experiments:
[1] = system: ERα binding to ERE I, ERE II, and ERE III; conditions: reported ER ChIP studies (ref. 46); cited from earlier work
[2] = system: TFF1 gene expression in MCF-7 cells; test: TFF1 expression by quantitative RT-PCR in MCF-7 cells transfected with TOX3 or vector control; conditions: for Effect on TFF1 expression compared to untreated control cells: MCF7 cells, normal culture conditions (not estrogen depleted); for TOX3 induction of TFF1 expression: resistant or sensitive to the drug: TOX3 transfected MCF7 cells, estrogen depleted medium, 36 hours
Description: Measurement of TFF1 induction by TOX3. […] MCF7 cells were transfected with a TOX3 expression vector or vector control, switched to estrogen depleted-medium after 8 hours in the presence or absence of the indicated drug, and analyzed by quantitative RT-PCR for TFF1 gene expression after an additional 36 hours in culture.

| SMILES | ER binding at ERE I, II, and III sites upstream of TFF1 and TMPRSS3 [1] | Effect on TFF1 expression compared to untreated control cells [2] | TOX3 induction of TFF1 expression: resistant or sensitive to the drug [2] |
| --- | --- | --- | --- |
| C[C@]12CC[C@@H]3c4ccc(O)cc4C[C@@H](CCCCCCCCC[S+]([O-])CCCC(F)(F)C(F)(F)F)[C@H]3[C@@H]1CC[C@@H]2O (stereo partly drawn) [fulvestrant] | residual binding | decrease | sensitive |
| CC/C(=C(\c1ccccc1)c1ccc(OCCN(C)C)cc1)c1ccccc1 [tamoxifen] | residual binding | decrease | resistant |
